Key:
Rhizoctonia solani = assay: Bioassay for inhibition of Rhizoctonia solani in vitro; type: cell-based; conditions: plant-extracted, HPLC-purified PRN; 28° C., 3 days
Protocol: R. solani was cultured on potato dextrose agar at 28° C. A disk (30 mm in diameter) of R. solani-containing agar was transferred to another Petri dish containing potato dextrose agar and 10 μl of HPLC elution buffer (negative control), 10 μl of various plant extracts, or 10 μl containing 0.2 mg of synthetic PRN in elution buffer (Sigma, positive control). Inhibition of fungal growth was determined after incubation at 28° C. for 3 days.

[1] = tested on: tomato (Solanum lycopersicum) cv Moneymaker; assay: Growth assay of tomato seedlings from seeds primed with IR-PRN; type: in vivo
Protocol: Seeds of tomato (Solanum lycopersicum) cv Moneymaker were primed with a priming solution containing 25% PEG without (control) or with IR-PRN.
The seeds were sown in randomly placed small tagged pots containing potting mixture, in a glasshouse at a night and day temperature of 15-18° C. and 22-27° C., respectively. Plant height, weight and dry weight were measured when the plant reached 3-5 true leaves. Typically the seedlings were 4-5 weeks old.

R. solani = assay: Assay for R. solani resistance (damping-off disease) of tomato plants; type: in vivo; conditions: control plants wilted within 2 weeks
Protocol: Roots of tomato (Solanum lycopersicum) seedlings were immersed in a water solution of IL-60-BS and IR-PRN or IR-PRN-GFP (1 μg/plantlet) until the entire solution was sucked up by the plants. The plants were then potted and kept in the greenhouse at 24° C. Tomato seedlings, 2 weeks after application of IL-60-BS and IR-PRN, were transferred to pots with 0.5 kg of soil mixed with 0.5 g of R. solani mycelium. Control plants (not carrying PRN) were similarly treated. Plants were kept for 2 to 3 weeks at 24° C. until symptom appearance.

[2] = plant expressing PRN, seedlings at 3-5 true leaves, 4-5 weeks old

For O=[N+]([O-])c1c(Cl)cccc1-c1c[nH]cc1Cl [PRN, 3-chloro-4-(2′-nitro-3′-chlorophenyl)-pyrrole], the “Inhibition of growth of R. solani” value (Rhizoctonia solani) was “inhibitory”, the Dry weight [1, 2] was 3.6 gr and the “Dry weight (% of fresh weight)” value [1, 2] was 42.7 % of fresh weight. The Fresh weight [1, 2] was 9.2 gr, the Height [1, 2] was 11 cm and the “Growth Enhancement (%), Dry weight” value ([1]; relative to control plant) was 276.9%. For the same compound, the “Growth Enhancement (%), Dry weight (% of fresh weight)” value ([1]; relative to control plant) was 159.9%, the “Growth Enhancement (%), Fresh weight” value ([1]; relative to control plant) was 191.7% and the “Growth Enhancement (%), Height” value ([1]; relative to control plant) was 134.1%. The “State of plants in R. solani-infested soil” value (R. solani) was “remained healthy”.

Source: patent US20140325707A1, “GROWTH ENHANCEMENT OF PLANTS” (Yissum Research Development Company of the Hebrew …, priority 2011, published 2014)
